The record followed here is paper PMC10877733, “Discovery and Characterization of VU0542270, the First Selective Inhibitor of Vascular Kir6.1/SUR2B KATP Channels” (Molecular Pharmacology, 2024).

The target of one experiment is T1, Kir4.1 (Homo sapiens, UniProt P78508).
T1 construct: expressed in transfected cells
T1 sequence (P78508 1-379): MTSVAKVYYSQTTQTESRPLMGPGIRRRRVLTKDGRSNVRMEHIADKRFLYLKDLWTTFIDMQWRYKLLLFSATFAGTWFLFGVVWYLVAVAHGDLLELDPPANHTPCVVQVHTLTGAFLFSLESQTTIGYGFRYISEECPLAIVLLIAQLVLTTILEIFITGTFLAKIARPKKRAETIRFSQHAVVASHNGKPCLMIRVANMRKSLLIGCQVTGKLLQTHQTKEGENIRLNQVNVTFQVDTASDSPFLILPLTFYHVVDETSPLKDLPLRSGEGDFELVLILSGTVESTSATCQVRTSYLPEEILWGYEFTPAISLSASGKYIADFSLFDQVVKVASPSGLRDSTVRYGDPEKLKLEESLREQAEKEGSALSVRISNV
In words: Thallium flux selectivity assay Kir4.1. Type of experiment: cell-based. On the procedure:
Quantitative thallium flux assays of Kir6.1/SUR2B activity were performed essentially as described previously for Kir6.2/SUR1 ([Raphemot et al., 2014]; [Kharade et al., 2019]). Stable T-Rex-HEK293-Kir6.1/SUR2B cells or transiently transfected HEK293T cells were plated in polyamine-coated, clear-bottomed, black-walled 384-well plates and were cultured (37°C/5% CO2) overnight in Dulbecco’s modified Eagle’s medium (Gibco, Carlsbad, CA, 11995-065) containing 10% FBS (2 mM Penicillin-Streptomycin). The following day, cells were washed with assay buffer (i.e., Hanks’ balanced salt solution/20 mM HEPES) and loaded for 1 hour with thallium sensor dye Brilliant Thallium (Ion Bioscience, San Marcos, TX) at room temperature. Dye-loaded cells were washed with assay buffer and transferred to a Panoptic Kinetic Imaging Plate Reader (Wavefront Bioscience, Franklin, TN). Control and test compound treatments were for 4 minutes prior to adding 0.5 mM chloride-free thallium stimulus buffer (Ion Bioscience) to initiate thallium flux. […] Selectivity assays against other Kir channels were performed essentially as described previously ([Kharade et al., 2018]; [McClenahan et al., 2022]).

Experiment [1] has as its system Kir6.1- or Kir6.2-containing channels in complex with either SUR2A or SUR2B. Kind of experiment: Thallium flux, Kir6.1 or Kir6.2 co-expressed with SUR2A or SUR2B in transfected HEK-293 cells. It is filed as cell-based. The note with it: 3 µM, Fig. 4D. From the text: The pcDNA3.1-SUR2B plasmid was generously provided by Dr. Colin Nichols (Washington University). The pcDNA5/TO-Kir6.1 plasmid was synthesized by GenScript. Stably transfected tetracycline-regulated expression human embryonic kidney-293 (T-Rex-HEK293) cells expressing both plasmids were generated by cotransfecting cells with Lipofectamine LTX followed by antibiotic selection and clonal selection using the thallium flux assay described below. Monoclonal lines expressing robust pinacidil-activated thallium flux were selected for high KATP channel activity. T-Rex-HEK293 cells expressing Kir6.2/SUR1 were created as described previously ([Raphemot et al., 2014]). The cell culture media contained Dulbecco’s modified Eagle’s medium (Gibco, 11965-092) supplied with heat-inactivated FBS (bio-techne, Minneapolis, MN S11150H,10%), Blasticidine HCl (Gibco, A11139-03, 10 ug/mL), Penicillin-Streptomycin (Gibco, 15140-122, 2 mM), G418 Sulfate (CORNING, Corning, NY, 30-234-CR, 1 mg/mL), and Hygromycin B (Invitrogen, Carlsbad, CA, 10687-010, 250 ug/mL). […]
Quantitative thallium flux assays of Kir6.1/SUR2B activity were performed essentially as described previously for Kir6.2/SUR1 ([Raphemot et al., 2014]; [Kharade et al., 2019]). […] Dye-loaded cells were washed with assay buffer and transferred to a Panoptic Kinetic Imaging Plate Reader (Wavefront Bioscience, Franklin, TN). […]

As to `Cc1nc(-c2cccs2)sc1CNC(=O)Nc1cccs1` [VU0542270], at Kir4.1, the IC50 is greater than 30 µM. Moreover, the “inhibition of Kir6.1- or Kir6.2-containing channels with SUR2A or SUR2B” value in experiment [1] was “inhibits”.

What is called IC50 is the concentration at which inhibition is half-maximal.
